Reference: patent US5151517A, “Derivatives of tetrahydro-2,3,6,7,1H,5H,11H-(1)benzopyrano(6,7,8,i,j)quinolizinone-11 usable as markers for organic compounds, particularly biological compounds with a view to their detection by chemiluminescence or fluorescence” (Laboratories Eurobio, priority 1989, dated 1992)
One block for each molecule: values may come before it.

Tests used:
[1] = Absorbance measurements (molecular extinction coefficient); format: physicochemical; details: acetone/ethyl acetate 75:25, 10^-6 mole/l coumarin
Procedure: (§1) The absorbance measurements were carried out with a Jobin Yvon JY3 spectrophotometer. The chemiluminescence measurements were obtained by using a Jobin Yvon JY4 spectrofluorimeter with 10 nm slit widths. The cell for the liquid samples is a 10×10 mm quart cell with a capacity of 3 ml and filled with 2 ml of solution, which corresponds to a real solution volume exposed to the photomultiplier of 1.35 ml.
(§2) Fluorescence and Absorbance Measurements
(§3) These measurements were carried out at 20^+ 2° C. and the quantum efficiencies of fluorescence RF of coumarins-1, 311 and 102 were determined compared with quinine disulphate, whose fluorescence quantum efficiency is 0.546 using the Parker method described in Analyst, 85, 1960, p. 587 using a 2 mg/l quinine disulphate solution in 0.1N H2 SO4.
(§4) For the coumarins, use was made of a solution of acetone and ethyl acetate in a volume ratio of 75:25 with a 10^-6 mole/l coumarin concentration ensuring in each case an absorbance below 0.05.

[2] = Chemiluminescence measurements with DNPO (printed DMPO in table 2) and H2O2; format: physicochemical; details: DMPO = bis(dinitro-2,4 phenyl)oxalate; for RC = chemiluminescence quantum efficiency: 10^-3 mole/l coumarin; for RE = excitation efficiency: RC = Rex × RF
Procedure: as §1
(§5) In order to determine the chemiluminescence quantum efficiencies Rc, the intensity was estimated as a function of time at the emission maximum. When the intensity decrease is relatively low, the emission spectrum is plotted and then the intensity is followed as a function of time until it has dropped to 2% of the maximum intensity.
(§6) The other luminescence parameters are measured directly. These consist of the maximum intensity (lmax), the time for reaching the maximum intensity (Tmax) and the time for reaching half the maximum intensity following the maximum time (T1/2).
(§7) The chemi luminescence efficiency Rc is calculated by the Rauhut method described in J. Am. Chem. Soc., 88, 15, 1966, p.3604.
(§8) The excitation efficiency Rex is determined on the basis of the formula: […]
(§9) For chemiluminescence measurements with TCPO, to 1 ml of the solution containing 10^-3 mole/l of coumarin are added 0.5 ml of a 2·10^-3 mole/l TCPO solution in ethyl acetate, 0.5 ml of a 2·10^-2 mole/l H2 O2 solution in acetone and 10 μl of a 0.1 mole/l imidazole nitrate buffer at pH 7.5. When DNPO is used, to the same solution of coumarin in acetone are added 0.5 ml of a 10^-3 mole/l DNPO solution in ethyl acetate and 0.5 ml of a 10^-2 mole/l H2 O2 solution in acetone.

[3] = Chemiluminescence measurements with TCPO and H2O2; format: physicochemical; details: TCPO = bis(trichloro-2,4,6 phenyl) oxalate; for RC = chemiluminescence quantum efficiency: 10^-3 mole/l coumarin, imidazole nitrate buffer pH 7.5; for RE = excitation efficiency: RC = Rex × RF
Procedure: as §1, §5, §6, §7, §8, §9

[4] = Fluorescence measurements (quantum efficiency vs quinine disulphate, sensitivity); format: physicochemical; details: for S = fluorescence sensitivity: acetone/ethyl acetate 75:25; for RF = fluorescence quantum efficiency: acetone/ethyl acetate 75:25, 10^-6 mole/l coumarin, 20 ± 2° C., vs quinine disulphate
Procedure: The fluorescence measurements are carried out with a Perkin Elmer LS5 spectrifluorometer with 2 nm slit widths for two monochromators.
as §2, §3, §4

[5] = Chemiluminescence with TCPO and H2O2 as a function of the coumarin-102 concentration; format: physicochemical; details: for Imax (maximum intensity) / RC × 10^4 (chemiluminescence efficiency) / T1/2 (time for reaching half the maximum intensity following the maximum time) / Tmax (time for reaching the maximum intensity): TCPO and H2O2
Procedure: The absorbance measurements were carried out with a Jobin Yvon JY3 spectrophotometer. The chemiluminescence measurements were obtained by using a Jobin Yvon JY4 spectrofluorimeter with 10 nm slit widths. The cell for the liquid samples is a 10×10 mm quart cell with a capacity of 3 ml and filled with 2 ml of solution, which corresponds to a real solution volume exposed to the photomultiplier of 1.35 ml. In order to determine the chemiluminescence quantum efficiencies Rc, the intensity was estimated as a function of time at the emission maximum. […] The other luminescence parameters are measured directly. These consist of the maximum intensity (lmax), the time for reaching the maximum intensity (Tmax) and the time for reaching half the maximum intensity following the maximum time (T1/2). The chemi luminescence efficiency Rc is calculated by the Rauhut method described in J. Am. Chem. […] When DNPO is used, to the same solution of coumarin in acetone are added 0.5 ml of a 10^-3 mole/l DNPO solution in ethyl acetate and 0.5 ml of a 10^-2 mole/l H2 O2 solution in acetone.

[6] = Chemiluminescence as a function of the pH of the solution; format: physicochemical
Procedure: as §1, §5, §6, §7, §9
Table 4 gives the variations of the chemiluminescence efficiency, lmax, Tmax and T1/2, as a function of the pH of the solution. […] However, the values for Tmax and T1/2 decrease when the pH increases beyond 5.

[7] = Comparison of fluorescence, absorbance and chemiluminescence properties of coumarin nuclei; format: physicochemical; details: compared with coumarine-1 and coumarine-311, tables 1 and 2
Procedure: The fluorescence measurements are carried out with a Perkin Elmer LS5 spectrifluorometer with 2 nm slit widths for two monochromators. The absorbance measurements were carried out with a Jobin Yvon JY3 spectrophotometer. The chemiluminescence measurements were obtained by using a Jobin Yvon JY4 spectrofluorimeter with 10 nm slit widths. The cell for the liquid samples is a 10×10 mm quart cell with a capacity of 3 ml and filled with 2 ml of solution, which corresponds to a real solution volume exposed to the photomultiplier of 1.35 ml. […] For the coumarins, use was made of a solution of acetone and ethyl acetate in a volume ratio of 75:25 with a 10^-6 mole/l coumarin concentration ensuring in each case an absorbance below 0.05. […] When DNPO is used, to the same solution of coumarin in acetone are added 0.5 ml of a 10^-3 mole/l DNPO solution in ethyl acetate and 0.5 ml of a 10^-2 mole/l H2 O2 solution in acetone.

[8] = Storage stability of luminarine-7 in dimethyl formamide solution; format: physicochemical; details: -20° C., in the presence of P2O5
Procedure: (§10) Stirring takes place for 2 hours and then the dicyclohexylurea formed is filtered. The remaining product, luminarine-7, is kept in solution in dimethyl formamide.

[9] = Hydrosolubility of a dried aliquot of luminarine-7; format: physicochemical; details: dried aliquot portion
Procedure: as §10

[10] = reference standard; 2 mg/l in 0.1N H2SO4; cited from earlier work

SMILES: CCN(CC)c1ccc2c(C)cc(=O)oc2c1 [COUMARINE-1, dimethylamino-7 methyl-4 coumarin]
ε = molecular extinction coefficient, 365 nm [1]: 38 000
RC = chemiluminescence quantum efficiency [2]: 0.18 10^2 E · mole^-1
RE = excitation efficiency [2]: 0.33 10^2
RC = chemiluminescence quantum efficiency [3]: 0.37 10^2 E · mole^-1
RE = excitation efficiency [3]: 0.67 10^2
S = fluorescence sensitivity [4]: 57 10^3
RF = fluorescence quantum efficiency [4]: 0.55

SMILES: C=CC1CN2CCC1CC2C(O)c1ccnc2ccc(OC)cc12 (stereo not drawn) [quinine disulphate]
fluorescence quantum efficiency [10]: 0.546

The next lines start with results.

ε = molecular extinction coefficient, 365 nm [1]: 23000 M⁻¹ cm⁻¹
RC = chemiluminescence quantum efficiency [2]: 0.26 10^2 E · mole^-1
RE = excitation efficiency [2]: 0.45 10^2
Imax (maximum intensity) ([5]; (C102) 1.4 × 10^-3): 301 A.U.
RC × 10^4 (chemiluminescence efficiency) ([5]; (C102) 1.4 × 10^-3): 12.0 E · mole^-1
T1/2 (time for reaching half the maximum intensity following the maximum time) ([5]; (C102) 1.4 × 10^-3): 6 s
Tmax (time for reaching the maximum intensity) ([5]; (C102) 1.4 × 10^-3): 12 s
Imax (maximum intensity) ([5]; (C102) 1.4 × 10^-6): 75 A.U.
RC × 10^4 (chemiluminescence efficiency) ([5]; (C102) 1.4 × 10^-6): 4.14 E · mole^-1
T1/2 (time for reaching half the maximum intensity following the maximum time) ([5]; (C102) 1.4 × 10^-6): 9 s
Tmax (time for reaching the maximum intensity) ([5]; (C102) 1.4 × 10^-6): 12 s
Imax (maximum intensity) ([5]; (C102) 1.4 × 10^-7): 31 A.U.
RC × 10^4 (chemiluminescence efficiency) ([5]; (C102) 1.4 × 10^-7): 2.31 E · mole^-1
T1/2 (time for reaching half the maximum intensity following the maximum time) ([5]; (C102) 1.4 × 10^-7): 7.2 s
Tmax (time for reaching the maximum intensity) ([5]; (C102) 1.4 × 10^-7): 12 s
Imax (maximum intensity) ([5]; (C102) 1.4 × 10^-8): 3.2 A.U.
RC × 10^4 (chemiluminescence efficiency) ([5]; (C102) 1.4 × 10^-8): 0.40 E · mole^-1
T1/2 (time for reaching half the maximum intensity following the maximum time) ([5]; (C102) 1.4 × 10^-8): 6 s
Tmax (time for reaching the maximum intensity) ([5]; (C102) 1.4 × 10^-8): 12 s
Imax (maximum intensity) ([5]; (C102) 1.4 × 10^-9): 0.3 A.U.
RC × 10^4 (chemiluminescence efficiency) ([5]; (C102) 1.4 × 10^-9): 0.20 E · mole^-1
T1/2 (time for reaching half the maximum intensity following the maximum time) ([5]; (C102) 1.4 × 10^-9): 4.8 s
Tmax (time for reaching the maximum intensity) ([5]; (C102) 1.4 × 10^-9): 12 s
Imax (maximum intensity) ([6]; pH 4): 24 A.U.
RC × 10^4 (chemiluminescence efficiency) ([6]; pH 4): 1.52 E · mole^-1
T1/2 (time for reaching half the maximum intensity following the maximum time) ([6]; pH 4): 300 s
Tmax (time for reaching the maximum intensity) ([6]; pH 4): 48 s
Imax (maximum intensity) ([6]; pH 5): 17 A.U.
RC × 10^4 (chemiluminescence efficiency) ([6]; pH 5): 1.58 E · mole^-1
T1/2 (time for reaching half the maximum intensity following the maximum time) ([6]; pH 5): 360 s
Tmax (time for reaching the maximum intensity) ([6]; pH 5): 60 s
Imax (maximum intensity) ([6]; pH 6): 25 A.U.
RC × 10^4 (chemiluminescence efficiency) ([6]; pH 6): 2.34 E · mole^-1
T1/2 (time for reaching half the maximum intensity following the maximum time) ([6]; pH 6): 336 s
Tmax (time for reaching the maximum intensity) ([6]; pH 6): 48 s
Imax (maximum intensity) ([6]; pH 7): 110 A.U.
RC × 10^4 (chemiluminescence efficiency) ([6]; pH 7): 2.23 E · mole^-1
T1/2 (time for reaching half the maximum intensity following the maximum time) ([6]; pH 7): 108 s
Tmax (time for reaching the maximum intensity) ([6]; pH 7): 24 s
Imax (maximum intensity) ([6]; pH 8): 245 A.U.
RC × 10^4 (chemiluminescence efficiency) ([6]; pH 8): 1.60 E · mole^-1
T1/2 (time for reaching half the maximum intensity following the maximum time) ([6]; pH 8): 24 s
Tmax (time for reaching the maximum intensity) ([6]; pH 8): 12 s
RC = chemiluminescence quantum efficiency [3]: 0.37 10^2 E · mole^-1
RE = excitation efficiency [3]: 0.65 10^2
S = fluorescence sensitivity [4]: 36 10^3
RF = fluorescence quantum efficiency [4]: 0.57
SMILES: Cc1cc(=O)oc2c3c4c(cc12)CCCN4CCC3 [COUMARINE-102, tetrahydro-2,3,5,6,7,1H,5H,11H-(1)-benzopyrano(6,7,8-ij)methyl-9 quinolizinone-11]
chemiluminescence efficiency as a function of concentration ([5]; TCPO and H2O2, table 3): chemiluminescence efficiency increases with the coumar in-102 concentration
fluorescence, absorbance and chemiluminescence properties [7]: better fluorescence, absorbance and chemiluminescece properties

ε = molecular extinction coefficient, 365 nm [1]: 26900 M⁻¹ cm⁻¹
RC = chemiluminescence quantum efficiency [2]: 0.13 10^2 E · mole^-1
RE = excitation efficiency [2]: 0.24 10^2
RC = chemiluminescence quantum efficiency [3]: 0.17 10^2 E · mole^-1
RE = excitation efficiency [3]: 0.32 10^2
S = fluorescence sensitivity [4]: 40 10^3
RF = fluorescence quantum efficiency [4]: 0.52
SMILES: Cc1cc(=O)oc2cc(N(C)C)ccc12 [COUMARINE-311, dimethylamino-7 methyl-4 coumarin]

hydrosolubility [9]: total hydrosolubility
SMILES: O=C(CCC(=O)ON1C(=O)CCC1=O)NCCOCCOCCOCCOCCOCCNC(=O)Cc1cc(=O)oc2c3c4c(cc12)CCCN4CCC3 [luminarine-7]
storage stability [8]: several months at -20 °C without any deterioration
